According to patent US9096832B2, “Differentiation of human embryonic stem cells” (LifeScan, Inc., priority 2007, dated 2015):

Tests used:
[1] = test system: H7P44 and H9P46 embryonic stem cells; experiment: Definitive endoderm on […]: role of Wnt ligands (FACS CXCR4, real-time PCR); type: cell-based, human
Procedure: In some of the cultures 20 ng/ml Wnt-3a (Catalog#1324-WN-002, R&D Systems, MN), 20 ng/ml Wnt-5a (Catalog#654-WN-010, R&D Systems, MN), 25 ng/ml Wnt-7a (Catalog#3008-WN-025, R&D Systems, MN), or 25 ng/ml Wnt-5b (Catalog#3006-WN-025, R&D Systems, MN) was added throughout the five day treatment. FIG. 24 depicts phase contrast images of H9P46 definitive endoderm culture in the presence of high concentration of (a) AA or (b) AA+20 ng/ml Wnt-3a. FIG. 25 depicts the expression of CXCR4 by FACS at day 5 for H7P44, and H9P46 lines cultured on […]™ (1:30 dilution) and exposed to the DE protocol+Wnt-3a (FIG. 25, panels b and d) and −Wnt-3a (FIG. 25, panels a and c).

[2] = test system: H9P46 embryonic stem cells; experiment: Definitive endoderm on […]: effective dose of Wnt-3a (FACS, PCR, cell number); type: cell-based, human
Procedure: Control cultures were not treated with Wnt-3a. FIG. 27, panel a depicts the expression of CXCR4 by FACS at day 5 in the absence of Wnt-3a, b) 10 ng/ml Wnt-3a, c) 20 ng/ml Wnt-3a and d) 50 ng/ml Wnt-3a. In the absence of Wnt-3a the expression of CXCR4 was very low. […] Real-time PCR results (FIG. 28, panel a) also confirm this finding.
In a separate study, H9p52 cells were plated on 1:30 low growth factor […]™. For the first 2 days of the DE protocol a range of Wnt-3a doses was used: 10 ng/ml, 5 ng/ml and 1 ng/ml. […] The number of cells at the end of the experiment is noted in FIG. 28, panel c.

[3] = test system: human embryonic stem cell line H9; experiment: FACS of protein markers after activin A treatment, hES cells on mouse embryonic fibroblasts (Table IIA); type: cell-based; conditions: for CD9 protein expression / CXCR4 protein expression / ECAM protein expression / NCAM protein expression / SSEA-3 protein expression: H9, FACS
Excerpt: (§1) The level of expression of definitive endoderm markers was examined by PCR (FIG. 1), FACS (results summarized in Table II), and immunohistochemistry (FIG. 2).
(§2) CXCR4 positive cells were also highly positive for C-kit, EPCAM, CD99, and negative for CD9. The expression pattern for these markers was consistent among all three hES cell lines examined (Table IIB for H7 and Table IIC for H1). […] In parallel, almost 100% of the differentiated cells were […] (FIG. 2).
(§3) Adhered cells were removed from culture plates by five-minute incubation with TrypLE™ Express solution (Invitrogen, CA). Released cells were resuspended in human embryonic stem cell culture medium and recovered by centrifugation, followed by washing and resuspending the cells in a staining buffer consisting of 2% BSA, 0.05% sodium azide in PBS (Sigma, MO). As appropriate, the cells were Fc-receptor blocked for 15 minutes using a 0.1% γ-globulin (Sigma) solution. […] Controls included appropriate isotype matched antibodies, unstained cells, and cells stained only with secondary conjugated antibody. All incubations with antibodies were performed for 30 mins at 4° C. after which the cells were washed with the staining buffer. Samples that were stained with unconjugated primary antibodies were incubated for an additional 30 mins at 4° C. with secondary conjugated PE or —APC labeled antibodies. See Table I for a list of secondary antibodies used. Washed cells were pelleted and resuspended in the staining buffer, and the cell surface molecules were identified using a FACS Array (BD Biosciences) instrument, collecting at least 10,000 events.

[4] = test system: human embryonic stem cell line H7; experiment: FACS of protein markers after activin A treatment (Table IIB); type: cell-based
Excerpt: as §1, §2, §3

[5] = test system: human embryonic stem cell line H9; experiment: PCR of endoderm, extraembryonic, mesoderm and ectoderm markers after activin A treatment on MEFs; type: cell-based
Excerpt: as §1
Cells were harvested at the time points indicated in FIG. 3 and assayed by PCR for the expression of genes shown (FIGS. 3, 4 and 5).
RNA extraction, purification, and CDNA synthesis: RNA samples were purified by binding to a silica-gel membrane (Rneasy Mini Kit, Qiagen, CA) in the presence of an ethanol-containing, high-salt buffer followed by washing to remove contaminants. The RNA was further purified using a TURBO DNA-free kit (Ambion, INC), and high-quality RNA was then eluted in water. Yield and purity were assessed by A260 and A280 readings on a spectrophotometer. cDNA copies were made from purified RNA using an ABI (ABI, CA) high capacity cDNA archive kit.
Final data were expressed relative to a calibrator sample.

[6] = test system: human embryonic stem cell line H9; experiment: CXCR4 expression by FACS, Activin A +/- Wnt3a, Example 34; type: cell-based; conditions: end of the 5th day, H9 passage 54
Procedure: The effect that Wnt-3a treatment has on cytokine expression was analyzed using a protein array. Cells of the human embryonic stem cell line H9 were cultured according to the methods described in Example 15. At passage 54, cells were differentiated in the presence of 100 ng/mlActivinA+/−10 ng/mlWnt3a for 2 days in 0.5% FBS DMEM/F12.
At the end of the 5th day, CXCR4 expression was determined by FACS for each treatment group.

Wnt-3a
expression of CXCR4 (CD184) by FACS ([1]; 20 ng/ml Wnt-3a in DE cultures, day 5, H7P44 and H9P46): robust expression | expression of definitive endoderm markers (real-time PCR) ([1]; low serum+AA+/-Wnt ligands, H7 and H9, five days): significant up regulation | number of CXCR4 positive cells ([2]; 10-50 ng/ml Wnt-3a, day 5): significantly increased | Wnt3a dose sufficient to reach optimal cell expansion and definitive endoderm differentiation ([2]; for 2 days, H9p52 on 1:30 low growth factor MATRIGEL): 10 ng/mL

Activin A: activin A (a member of the TGFβ superfamily), R&D Systems; 'w/o wnt' in Table VII = 100 ng/ml Activin A without Wnt3a
expression of E-cadherin and N-cadherin ([3]; FACS, following activin A treatment): did not change | CD9 protein expression ([3]; 2-DAY activin A 100 ng/ml): 29.42% | CXCR4 protein expression ([3]; 2-DAY activin A 100 ng/ml): 20.2% | ECAM protein expression ([3]; 2-DAY activin A 100 ng/ml): 20.87% | NCAM protein expression ([3]; 2-DAY activin A 100 ng/ml): 5.04% | SSEA-3 protein expression ([3]; 2-DAY activin A 100 ng/ml): 92.14% | CD9 protein expression ([3]; 5-DAY activin A 100 ng/ml): 7.27% | CXCR4 protein expression ([3]; 5-DAY activin A 100 ng/ml): 55.26% | ECAM protein expression ([3]; 5-DAY activin A 100 ng/ml): 14.17% | NCAM protein expression ([3]; 5-DAY activin A 100 ng/ml): 21.1% | SSEA-3 protein expression ([3]; 5-DAY activin A 100 ng/ml): 42.9% | CD9 protein expression ([3]; 8-DAY activin A 100 ng/ml): 4.1% | CXCR4 protein expression ([3]; 8-DAY activin A 100 ng/ml): 56.92% | ECAM protein expression ([3]; 8-DAY activin A 100 ng/ml): 1.02% | NCAM protein expression ([3]; 8-DAY activin A 100 ng/ml): 8.86% | SSEA-3 protein expression ([3]; 8-DAY activin A 100 ng/ml): 22.05% | CXCR4 protein by FACS analysis ([3]; following activin A treatment): increase | CXCR4+ ([4]; 1-day AA 100 ng/ml): 6% | CXCR4+ C-Kit+ ([4]; 1-day AA 100 ng/ml): 2.97% | CXCR4+ CD9+ ([4]; 1-day AA 100 ng/ml): 8.13% | CXCR4+ EPCAM+ ([4]; 1-day AA 100 ng/ml): 14.58% | CXCR4+ ([4]; 3-day AA 100 ng/ml): 38% | CXCR4+ C-Kit+ ([4]; 3-day AA 100 ng/ml): 31.56% | CXCR4+ CD9+ ([4]; 3-day AA 100 ng/ml): 24.11% | CXCR4+ EPCAM+ ([4]; 3-day AA 100 ng/ml): 36.67% | CXCR4+ ([4]; 5-day AA 100 ng/ml): 65.5% | CXCR4+ C-Kit+ ([4]; 5-day AA 100 ng/ml): 55.21% | CXCR4+ CD9+ ([4]; 5-day AA 100 ng/ml): 2.1% | CXCR4+ EPCAM+ ([4]; 5-day AA 100 ng/ml): 54.5% | Oct4 expression ([5]; Activin A 100 ng/ml up to seven days): no significant decrease | Pdx1 gene expression ([5]; Activin A 100 ng/ml up to seven days, 0% to 2% serum): no Pdx1 gene expression was observed | expression of Brachyury ([5]; H9, 100 ng/ml activin A): decreased | expression of neuronal marker Zic1 ([5]; H9, 100 ng/ml activin A): no effect | expression of extraembryonic endoderm markers Sox7 and AFP ([5]; H9, 100 ng/ml activin A, 1-7 days): time-dependent decrease | anterior endoderm markers Cerberus, Otx-1 and Hex genes ([5]; H9, 100 ng/ml activin A, three and five days): significant up regulation | expression of CXCR4, GATA4, HNF-3beta, Mixl1 and Sox-17 mRNA ([5]; H9, 100 ng/ml activin A, two, five and eight days): time-dependent increase | cells expressing CXCR4 (FACS) [6]: 1%
